System: 565726-208-R1-J5-PDC complex spheroids, growth inhibition
Test: Anticancer human tumor 565726-208-R1-J5-PDC patient-derived pancreatic adenocarcinoma cell line growth inhibition [RAS]
Settings: for IC50: curve of first compound; for viability, T/C: stronger effect = lower value
Description: RAS pathway inhibitors in Combinations in Complex Spheroids
A high-throughput screen of multi-cell type tumor spheroids was designed to identify active combinations of RAS pathway inhibitors and targeted small molecules. Complex spheroids include a stromal component modeled by human endothelial cells (HUVEC) and fibroblasts modeled by human mesenchymal stem cells (MSCs). The concentration ranges selected for each drug and investigational agent were based upon clinically achievable concentrations if the clinical Cmax of the agent was known.
Compounds. The drugs and investigational agents: abemaciclib (NSC768073), cobimetinib (NSC768068), divarasib (GDC6063, NSC841802), docetaxel (NSC628503), GDC-1971 (RLY-1971, NSC841576), gemcitabine (NSC613327), inavolisib (NSC800729), ipatasertib (NSC767898), KB-0742 (NSC834161), MRTX-1133 (NSC836407), osimertinib (NSC779217), RMC-4630 (NSC839698), RMC-6236 (NSC851965), RMC-6291 (NSC852671), Ro-3306 (NSC812927), sapanisertib (NSC764658), SN-38 (NSC673596), staurosporine (NSC755774), SY5609 (NSC837396), and tovorafenib (DAY101, NSC766906), were obtained from the National Cancer Institute (NCI) Developmental Therapeutics Program Chemical Repository. The FDA-approved anticancer drug set is available from the NCI Developmental Therapeutics Program. […] The stock solutions were prepared in dimethyl sulfoxide (DMSO, Sigma-Aldrich, St. Louis, MO, cat. D2650) at 800-fold the tested concentration and stored at -70 degrees C prior to their use. All drugs and investigational agents were tested over a range starting from a high concentration at or near the clinical Cmax and decreasing in half-log increments. If the clinical Cmax for an agent had not been determined, the highest concentration tested was 10 microM.
Cell Culture. All cells were maintained in an incubator at 37 degrees C and 5% CO2 with 95% humidity. The PDC lines were cultured according to standard operating procedures established by the NCI PDMR. All PDCs were thawed and cultured in Matrigel-coated flasks prepared with a working solution of 1X Ham's F-12 nutrient mix, without supplementation (Invitrogen, Waltham, MA, cat. 11765054), 100 U/mL penicillin-streptomycin (Invitrogen, cat. 15140122), and 2.5% Matrigel (Corning Inc., Corning, NY, cat. 354248) for the first three passages. The 362531-283-R-J2-PDC and 782815-120-R-J1-PDC lines were cultured in 6C/Colon 1B media, which includes advanced DMEM/F-12 (Thermo Fisher Scientific, cat. 12634028), 10 mM HEPES (Thermo Fisher Scientific, cat. 15630080), 1X GlutaMAX supplement (Thermo Fisher Scientific, cat. 35050061), 0.1 mg/mL primocin (InvivoGen, San Diego, CA, cat. ant-pm-2), 10% defined fetal bovine serum, heat inactivated (HyClone Laboratories Inc., Logan, UT, cat. SH30070.03HI), 50% L-WRN conditioned media (ATCC, cat. CRL-3276), 1.25 mM N-Acetyl-L-cysteine (Sigma-Aldrich, cat. A9165), 10 mM nicotinamide (Sigma-Aldrich, cat. N0636), 1X B-27 supplement (Thermo Fisher Scientific, cat. 17504044), 1X N-2 supplement (Thermo Fisher Scientific, cat. 17502048), 50 ng/mL human EGF (Thermo Fisher Scientific, cat. PHG0311), and 10 microM Y-27632 dihydrochloride (Tocris Bioscience, cat. 1254). The K12877-001-R-J1-PDC line was cultured in 6I media, which includes all 6C/Colon 1B media plus 10 ng/mL human FGF-10 (PeproTech, cat. 100-26), 1 ng/mL human FGF-2 (PeproTech, cat. 100-18B), 1 µM prostaglandin E2 (Tocris Bioscience, cat. 2296), […] hydrocortisone (Sigma-Aldrich, cat. H4001), and […] bovine insulin (Sigma-Aldrich, cat. I6634). The K86415-001-R-J1-PDC line was cultured in 6D media, which includes all 6C/Colon 1B media components minus the L-WRN conditioned media. The 485176-168-R4-J1-PDC was cultured in PANC media, which includes all 6C/Colon 1B media plus 100 ng/mL human FGF-10 (PeproTech, cat. 100-26), 500 nM SB-431542 (Selleckchem, cat. S1067), and 10 nM gastrin (Tocris Bioscience, cat. 3006). […]
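Also: spheroids exposed to compounds for seven days before readout.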
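For viability, T/C in this document: 100% = DMSO vehicle control viability.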

**Q.** For C=CC(=O)Nc1cc(Nc2nccc(-c3cn(C)c4ccccc34)n2)c(OC)cc1N(C)CCN(C)C + C#Cc1c(F)ccc2cc(O)cc(-c3ncc4c(N5CC6CCC(C5)N6)nc(OCC56CCCN5CC(F)C6)nc4c3F)c12, which IC50 (second compound 0.0316 µM) is on record?
**A.** > 1000 nM

**Q.** And the IC50 (second compound 0.1 µM)?
**A.** > 1000 nM

**Q.** And the IC50 (second compound 0.316 µM)?
**A.** > 1000 nM

**Q.** What about the IC50 (second compound 1 µM) of the same compound?
**A.** > 1000 nM

**Q.** And the IC50 (second compound 3.16 µM)?
**A.** > 1000 nM

**Q.** What about the IC50 (second compound 10 µM) of the same compound?
**A.** 70.9 nM

**Q.** What about the viability, T/C (second compound 0.0316 µM, first compound 0.00316 µM) of the same compound?
**A.** 120%

**Q.** And the viability, T/C (second compound 0.0316 µM, first compound 0.01 µM)?
**A.** 139%

**Q.** What about the viability, T/C (second compound 0.0316 µM, first compound 0.0316 µM) of the same compound?
**A.** 96.1%

**Q.** And the viability, T/C (second compound 0.0316 µM, first compound 0.1 µM)?
**A.** 101%

**Q.** What about the viability, T/C (second compound 0.0316 µM, first compound 0.316 µM) of the same compound?
**A.** 130%

**Q.** And the viability, T/C (second compound 0.0316 µM, first compound 1 µM)?
**A.** 103%

**Q.** What about the viability, T/C (second compound 0.1 µM, first compound 0.00316 µM) of the same compound?
**A.** 113%

**Q.** And the viability, T/C (second compound 0.1 µM, first compound 0.01 µM)?
**A.** 144%

**Q.** What about the viability, T/C (second compound 0.1 µM, first compound 0.0316 µM) of the same compound?
**A.** 102%

**Q.** And the viability, T/C (second compound 0.1 µM, first compound 0.1 µM)?
**A.** 92.3%

**Q.** What about the viability, T/C (second compound 0.1 µM, first compound 0.316 µM) of the same compound?
**A.** 121%

**Q.** And the viability, T/C (second compound 0.1 µM, first compound 1 µM)?
**A.** 97.5%

**Q.** And the viability, T/C (second compound 0.316 µM, first compound 0.00316 µM)?
**A.** 127%

**Q.** What about the viability, T/C (second compound 0.316 µM, first compound 0.01 µM) of the same compound?
**A.** 130%

**Q.** And the viability, T/C (second compound 0.316 µM, first compound 0.0316 µM)?
**A.** 88.9%

**Q.** And the viability, T/C (second compound 0.316 µM, first compound 0.1 µM)?
**A.** 77.6%

**Q.** What about the viability, T/C (second compound 0.316 µM, first compound 0.316 µM) of the same compound?
**A.** 113%

**Q.** What about the viability, T/C (second compound 0.316 µM, first compound 1 µM) of the same compound?
**A.** 98.1%

**Q.** What about the viability, T/C (second compound 1 µM, first compound 0.00316 µM) of the same compound?
**A.** 138%

**Q.** And the viability, T/C (second compound 1 µM, first compound 0.01 µM)?
**A.** 110%

**Q.** What about the viability, T/C (second compound 1 µM, first compound 0.0316 µM) of the same compound?
**A.** 76.7%

**Q.** What about the viability, T/C (second compound 1 µM, first compound 0.1 µM) of the same compound?
**A.** 68.1%

**Q.** What about the viability, T/C (second compound 1 µM, first compound 0.316 µM) of the same compound?
**A.** 87.1%

**Q.** And the viability, T/C (second compound 1 µM, first compound 1 µM)?
**A.** 84.7%

**Q.** And the viability, T/C (second compound 3.16 µM, first compound 0.00316 µM)?
**A.** 120%

**Q.** And the viability, T/C (second compound 3.16 µM, first compound 0.01 µM)?
**A.** 85.2%

**Q.** What about the viability, T/C (second compound 3.16 µM, first compound 0.0316 µM) of the same compound?
**A.** 65%

**Q.** What about the viability, T/C (second compound 3.16 µM, first compound 0.1 µM) of the same compound?
**A.** 51.2%

**Q.** And the viability, T/C (second compound 3.16 µM, first compound 0.316 µM)?
**A.** 72%

**Q.** What about the viability, T/C (second compound 3.16 µM, first compound 1 µM) of the same compound?
**A.** 74%

**Q.** What about the viability, T/C (second compound 10 µM, first compound 0.00316 µM) of the same compound?
**A.** 89.4%

**Q.** And the viability, T/C (second compound 10 µM, first compound 0.01 µM)?
**A.** 86.5%

**Q.** And the viability, T/C (second compound 10 µM, first compound 0.0316 µM)?
**A.** 64.1%

**Q.** What about the viability, T/C (second compound 10 µM, first compound 0.1 µM) of the same compound?
**A.** 41.2%

**Q.** And the viability, T/C (second compound 10 µM, first compound 0.316 µM)?
**A.** 50.7%

**Q.** And the viability, T/C (second compound 10 µM, first compound 1 µM)?
**A.** 40.1%
